The source of these data is patent US12441732B2, “Potassium salt crystal form B of phosphodiesterase type 5 inhibitor, and preparation method and use therefor” (Guangzhou Huazhen Pharmaceutical Co., Ltd, priority 2019, dated 2025).

Assay [1] relates to PAH rats. As to the kind of experiment: Monocrotaline-induced pulmonary arterial hypertension (PAH) rats: RVSP, RVMI, pulmonary arterioles. It is filed as in vivo, SD rats. The note with it: for RVMI, RV/(LV+S) / RVSP: 3 weeks after MCT. The source says:
SD rats were randomly divided into 8 groups, 15 rats/group: a normal control group (Vehicle); a PAH model group (MCT); a PAH+potassium salt crystal form B of WYQ mini-dose group (hereafter referring to as a mini-dose group); a PAH+potassium salt crystal form B of WYQ low-dose group (hereafter referring to as a low-dose group); a PAH+potassium salt crystal form B of WYQ medium-dose group (hereafter referring to as a medium-dose group); a PAH+potassium salt crystal form B of WYQ high-dose group (hereafter referring to as a high-dose group); a PAH+Sildenafil control group (hereafter referring to as a Sildenafil group); a PAH+Tadalafil control group (hereafter referring to as a Tadalafil group).
MCT was fully dissolved with 1M dilute HCl, diluted with double-distilled water, and adjusted to pH=7.2 with 3M NaOH, thereby preparing a MCT solution with a final concentration of 20 mg/ml.
The normal control group was injected subperitoneally with normal saline (50 mg/kg), and the rest of the groups were injected subperitoneally with MCT (50 mg/kg) at one time.
Mini-dose group: the potassium salt crystal form B of WYQ was prepared into a 0.4 mg/ml medicinal solution (ready to use) with normal saline, and administered by gavage at the dose of 2 mg·kg^−1d^−1;
Low-dose group: the potassium salt crystal form B of WYQ was prepared into a 1 mg/ml medicinal solution (ready to use) with normal saline, and administered by gavage at the dose of 5 mg·kg^−1d^−1;
Medium-dose group: the potassium salt crystal form B of WYQ was prepared into a 2 mg/ml medicinal solution (ready to use) with normal saline, and administered by gavage at the dose of 10 mg·kg^−1d^−1;
High-dose group: the potassium salt crystal form B of WYQ was prepared into a 4 mg/ml medicinal solution (ready to use) with normal saline, and administered by gavage at the dose of 20 mg·kg^−1d^−1;
Sildenafil group: Sildenafil was prepared into a 5 mg/ml medicinal solution (ready to use) with 0.5% sodium carboxymethyl cellulose, and administered by gavage at the dose of 25 mg·kg^−1d^−1;
Tadalafil group: Tadalafil was prepared into a 2 mg/ml medicinal solution (ready to use) with 0.5% sodium carboxymethyl cellulose, and administered by gavage at the dose of 10 mg·kg^−1d^−1.
The day of injection was the starting date of the experiment, and the administration was started after 7 days of modeling, once a day for 14 consecutive days.
After 3 weeks from the starting date of the experiment, RVSP data were collected on RM-6240E polygraph for each group of rats.
After 3 weeks from the starting date of the experiment, the animals were anesthetized, hemodynamically tested (RM-6240E polygraph), and sacrificed after manometry. The cardiopulmonary tissues were immediately dissected, and the right and left atria and great vessels were cut off along the atrioventricular junction with ophthalmic scissors to separate the right ventricle (RV) and left ventricular wall plus septum (LV+S), which was absorbed water with filter paper and weighed respectively, and RV/(LV+S), i.e., RVMI was calculated.
After 3 weeks from the starting date of the experiment, rats were heparinized with heparin (50 IU/100 g, intraperitoneal injection) for 5 min. The animals were anesthetized by injection of 20% urethane solution (0.5 ml/100 g), and the blood pressure indexes were detected and recorded.
The heart was dissected, the right ventricular wall was separated, and the left ventricle and the septum were separated, which were absorbed water with filter paper and weighed respectively to calculate the right ventricular hypertrophy index.
The lungs were dissected, wherein the right lung was ligated, and the left lung lobe was perfused with a fixative (4% paraformaldehyde) and then fixed in the fixative, dehydrated by ethanol gradient, allowed to become transparent by using xylene, immersed in wax, embedded in paraffin, sectioned (4 μm), stained with hematoxylin-eosin (HE), sealed with neutral gum and then observed under a microscope. […]

For assay [2], the system named is rats with isoproterenol-induced myocardial hypertrophy. The assay can be described thus: Isoproterenol-induced myocardial hypertrophy in rats. The conditions noted are these: Iso rats, 2 mg·kg^−1·d^−1 gavage, 7 days. It is filed as in vivo, SD rats. Here is the method:
SD rats were randomly divided into 3 groups, 10 rats/group: a normal control group (CON); an isoproterenol-induced myocardial hypertrophy model group (Iso); an Iso+the potassium salt crystal form B of WYQ treatment group (hereafter referred to as a treatment group).
Isoproterenol was prepared into a 4 mg/ml medicinal solution with double-distilled water, which was ready to be used. The normal control group was injected with normal saline (5 mg/kg) subperitoneally, and the rest of the groups were injected with isoproterenol (5 mg/kg) subperitoneally once a day for 7 consecutive days.
Treatment group: the potassium salt crystal form B of WYQ was prepared into a 0.4 mg/ml medicinal solution with normal saline (ready to use) and administered by gavage at a dose of 2 mg·kg^−1·d^−1; and
the day of injection was the starting date of the experiment, and the administration was started 2 hours after the modeling, once a day for 7 consecutive days.
After 7 days from the starting date of the experiment, the left ventricle was intubated retrogradely through the right common carotid artery, and the hemodynamic indexes of each group of rats were collected on the RM-6240E polygraph, including the left ventricular pressure (LVP) and the rate of ventricular pressure change (dp/dt).
One week after the starting date of the experiment, the animals were anesthetized and hemodynamically tested (RM-6240E polygraph). The animals were sacrificed after pressure measurement. The heart tissues were immediately dissected and rinsed in frozen normal saline to remove blood. The heart was weighed quickly, and the left and right atria are cut along the atrio-ventricular junction with ophthalmic scissors. The left ventricle was separated, and absorbed water with filter paper, weighed, and put into liquid nitrogen for extraction of protein and mRNA to detect changes in the expression of hypertrophy-related factor genes. After 2 hours, the left ventricle tissue was transferred to a refrigerator at −80° C. for freezing and storage. After completing the above operations, the leg skin and muscles of the rats were cut with surgical scissors to fully expose the tibia, and the length of the tibia was measured. The myocardial hypertrophy index of rats was expressed by a heart-tibia length (HW-Tibia).

The mark [3] stands for this setting: high-dose 20 mg·kg^−1d^−1 gavage once a day for 14 days.
Where [4] appears, read: low-, medium- and high-dose groups (5, 10, 20 mg·kg^−1d^−1).
Setting [5] is: low-dose 5 mg·kg^−1d^−1 gavage once a day for 14 days.
[6] abbreviates: medium-dose 10 mg·kg^−1d^−1 gavage once a day for 14 days.
[7] abbreviates: mini-dose 2 mg·kg^−1d^−1 gavage once a day for 14 days.

SMILES strings stand for the structures.

For the molecule `CCCCOC(=O)[N-]S(=O)(=O)c1cccc(-c2nc3c(CCC)nn(C)c3c(=O)[nH]2)c1.[K+]` [potassium salt crystal form B], in assay [1] (setting [3]), the “RVMI, RV/(LV+S)” value came to 34.6±19% and the RVSP turned out to be 29.8±1.6 mmHg. For the same molecule, in assay [1] (setting [4]), the “WT % of pulmonary arterioles vs PAH model group” value is “decreased and improved significantly”; the “tunica media thickness of pulmonary arterioles vs PAH model group” value was “decreased and improved significantly”. Moreover, in assay [1] (setting [5]), the “RVMI, RV/(LV+S)” value stood at 40.6±2.7% and the RVSP is listed as 47.6±1.9 mmHg. Besides, in assay [1] (setting [6]), the “RVMI, RV/(LV+S)” value amounted to 38.7±2.1% and the RVSP came to 40.7±1.5 mmHg. Moreover, in assay [1] (setting [7]), the “RVMI, RV/(LV+S)” value was 42.8±2.1% and the RVSP came to 56.2±0.5 mmHg. Moreover, in assay [2], the “BNP gene expression in heart tissue vs model group” value was “significantly decreased”, the “HW-Tibia ratio vs model group” value is given as “significantly reduced”, the “Max dp/dt vs model group” value is “significantly higher” and the “Min dp/dt vs model group” value is recorded as “significantly higher”. For the same molecule, in assay [2], the “expression of ANP gene in left heart tissue vs model group” value is given as “significantly decreased”, the “expression of ANP protein in left heart tissue vs model group” value is on record as “significantly decreased”, the “left ventricle-tibia length ratio vs model group” value is “significantly reduced” and the “left ventricular pressure (LVP) vs model group” value is “significantly higher”.
